Measurements: patent publication US20210393547A1, “USE OF EMODIN IN TREATING RETINAL ISCHEMIA OR A DISEASE, CONDITION, OR DISORDER ASSOCIATED WITH RETINAL ISCHEMIA” (priority 2020, published 2021)

Tested on: retinal ischemia in Wistar rats
Assay: ERG b-wave recording after raised-IOP retinal ischemia/reperfusion
Assay type: in vivo, rat
Conditions: for ERG b-wave ratio (treated eye to untreated fellow eye): mean±S.E.M.; for ERG b-wave amplitude: Wistar rat
Experimental: Emodin was purchased from Sigma-Aldrich (E7881; 90%; storage at 2-8° C.; from Frangula bark; St. Louis, Mo., United States). Drug administration for different procedures, namely ERG, fluorogold RGC labelling, cresyl violet retinal staining and Western blot assays, were described in Tables 3 to 6. Vehicle or emodin (5 μL) was administered via an intravitreous injection route so that these agents were then able to be directly diffused to the target. Emodin was dissolved in vehicle (DMSO:distilled water=1:3). The defined final cellular concentrations of administered drug were 0.25 or 0.5 μM, which were achieved after 40 times dilution from the stock concentrations, namely 10 or 20 μM, based on an arbitrary definition of the vitreous volume as 200 μL. To test a wider range of dose-response, 4 μM of emodin was thus added in the animal experiments. The Vehicle+IR and Emo+IR groups (pre-ischemic administration of emodin 4, 10 or 20 μM) were subjected to following the experimental procedures; these were initial pre-ischemic intravitreous injection (vehicle or emodin), retinal ischemia induction 1 day later, and sacrifice of the animal on the following day to allow the various post-mortem procedures except ERG. In the post-ischemic treatment group, in order to decrease the number of animals used, the present invention only used a single emodin concentration of 20 μM. Furthermore, intravitreous emodin was given 1 day after initial retinal ischemia induction and animals were sacrificed the following day to allow the performance of various post-mortem procedures as mentioned above.
The IOP procedure used raised the IOP and was designed to cause retinal ischemia in Wistar rats and simulate ischemic retinal disorders. The rats were anesthetized and constrained with a sterotaxic frame. A 30-gauge needle connected to an elevated saline bottle was attached to anterior chamber of the rat's eye. The pressure exerted by the saline inside the bottle was controlled to 120 mmHg. This procedure was conducted for 1 hour. Successful retinal ischemia induction was confirmed by observing that the whitening of the retina took place. Throughout the experiments, the animals were kept on heat mats to maintain their temperature. The sham procedure involved keeping the pressure in saline bottle 0 mmHg.
Animals were given anesthesia prior to the flash ERG measurements. For the Sham or pre-ischemic treatment group (intravitreous injection of emodin or vehicle 1 day before ischemia; Emodin+IR or Vehicle+IR), flash ERG responses were measured before the sham procedure, IR procedures or any drug administration (day 0), and one day after the sham procedure or IR procedure with pre-ischemic intravitreous injection. In the post-ischemic treatment group, ERG recordings were collected pre-ischemia (day 0), and post-ischemia (at timepoints: 1 day after ischemia; 1 day after post-ischemic intravitreous injection of emodin). Dark adaption and pupil dilation using 1% tropicamide and 2.5% phenylephrine were carried out 8 hours before the ERG measurement. The ERG recording machinery was purchased from the Grass-Telefactor Company (AstroNova, QC, Canada) and included a stimulator (PS22), a regulated power supply (RPS107), and an amplifier (P511). A strobe light (0.5 Hz), which acted as the source of stimulus, was placed 2 cm directly in front of the rat's eye. Fifteen consecutive measurements (10 kHz) were retrieved every two seconds. The amplitudes were calculated to obtain an average. To make comparisons between the various groups, the ratios of the b-wave amplitude of one eye (sham procedure or ischemic insult with defined agents) to that of the untreated fellow normal eye were analyzed.

- ERG b-wave ratio (treated eye to untreated fellow eye) (Emo4+IR: pre-ischemic intravitreous 4 μM emodin, n=8, Sham normalized to 1, Vehicle+IR 0.04): 0.08±0.07
- ERG b-wave amplitude (Emo4+IR: pre-ischemic intravitreous injection of 4 μM emodin followed by IR, Sham 0.87, Vehicle+IR 0.03): 0.07 mV
- ERG b-wave ratio (treated eye to untreated fellow eye) (Emo10+IR: pre-ischemic intravitreous 10 μM emodin, n=4, P<0.001 vs Vehicle+IR): 0.64±0.28
- ERG b-wave amplitude (Emo10+IR: pre-ischemic intravitreous injection of 10 μM emodin followed by IR): 0.58 mV
- ERG b-wave ratio (treated eye to untreated fellow eye) (Emo20+IR: pre-ischemic intravitreous 20 μM emodin, n=4, P<0.001 vs Vehicle+IR): 0.99±0.18
- ERG b-wave amplitude (Emo20+IR: pre-ischemic intravitreous injection of 20 μM emodin followed by IR): 0.63 mV
- ERG b-wave amplitude (IR+Emo20: IR followed by post-ischemic intravitreous injection of 20 μM emodin): 0.12 mV
- ERG b-wave ratio (treated eye to untreated fellow eye) (IR+Emo20: post-ischemic intravitreous 20 μM emodin, n=9, P<0.001 vs Vehicle+IR): 0.24±0.09
Structure (SMILES): Cc1cc(O)c2c(c1)C(=O)c1cc(O)cc(O)c1C2=O [emodin, 6-methyl-1,3,8-trihydroxyanthraquinone]
